Drawing on ChEMBL document CHEMBL2424645, “Phosphorylated ganciclovir derivatives: design, synthesis and in vitro and in vivo immunomodulatory activity” (Med Chem Res, 2013), this text covers Activity and LD50 for 7 compounds.

The source made the active and inactive calls. The rule behind the calls is not given here.

Usually LD50 stands for the dose at which mortality reaches 50%.

In one data set the test system is Neutrophil. The data set is described as follows: Immunomodulatory activity in human neutrophils assessed as increase in intracellular killing activity at 20 ug/mL after 20 mins by NBT dye reduction assay relative to control. The class given is functional. Set-up: scale not given: the % may be the effect or the level left.
Conditions: not given
In the case of `CCOC(=O)C(CO)NCP1(=O)OCC(OCn2cnc3c(=O)[nH]c(N)nc32)CO1` (centres undefined), the Activity is 39.92%.
For `Nc1nc2c(ncn2COC(CO)CO)c(=O)[nH]1` [GANCICLOVIR], the Activity is 53.21%.
In the case of `NCCSCP1(=O)OCC(OCn2cnc3c(=O)[nH]c(N)nc32)CO1` (centres undefined), the Activity came to 45.64%.
Turning to `Nc1nc2c(ncn2COC2COP(=O)(CNCCO)OC2)c(=O)[nH]1` (centres undefined), the Activity was 45.98%.
Consider `CCOC(=O)C(N)CSCP1(=O)OCC(OCn2cnc3c(=O)[nH]c(N)nc32)CO1` (centres undefined), for which the Activity was found to be 56.34%.
As to `COC(=O)C(NCP1(=O)OCC(OCn2cnc3c(=O)[nH]c(N)nc32)CO1)C(C)C` (centres undefined), the Activity is recorded as 55.09%.
Same read-out and setting: the result for `CCC(CO)NCP1(=O)OCC(OCn2cnc3c(=O)[nH]c(N)nc32)CO1` (centres undefined) reads 43.15%.

A further data set deals with Rattus norvegicus. Nature of the data set: Immunomodulatory activity in high fat diet-induced obese Wistar albino rat impaired immune model assessed as IL-1 level at 8 mg/kg, po after 8 weeks by ELISA relative to relative to high fat-diet fed rat with immune dysfunction. The class given is functional.
Conditions: not given
For the compound `NCCSCP1(=O)OCC(OCn2cnc3c(=O)[nH]c(N)nc32)CO1` (centres undefined), the result was inactive.
Still for that read-out and setting: the result for `Nc1nc2c(ncn2COC2COP(=O)(CNCCO)OC2)c(=O)[nH]1` (centres undefined) reads “inactive”; that for `CCOC(=O)C(N)CSCP1(=O)OCC(OCn2cnc3c(=O)[nH]c(N)nc32)CO1` (centres undefined), 122.9 pg/mL; that for `COC(=O)C(NCP1(=O)OCC(OCn2cnc3c(=O)[nH]c(N)nc32)CO1)C(C)C` (centres undefined), 123.6 pg/mL.
Still for that read-out and setting: the result for `CCC(CO)NCP1(=O)OCC(OCn2cnc3c(=O)[nH]c(N)nc32)CO1` (centres undefined) reads “inactive”.

For the next data set, the system named is Rattus norvegicus. Nature of the data set: Immunomodulatory activity in high fat diet-induced obese Wistar albino rat impaired immune model assessed as decrease in total lymphocytes count at 8 mg/kg, po after 8 weeks by hematology analyser relative to control. In kind it is functional, organism-based. On the set-up: dose 8 mg/kg.
Conditions: not given
As for `CCOC(=O)C(N)CSCP1(=O)OCC(OCn2cnc3c(=O)[nH]c(N)nc32)CO1` (centres undefined), the result was Active.
For the compound `COC(=O)C(NCP1(=O)OCC(OCn2cnc3c(=O)[nH]c(N)nc32)CO1)C(C)C` (centres undefined), the result was Active.

The subject of the next data set is Neutrophil. Nature of the data set: Immunomodulatory activity in human neutrophils assessed as increase in intracellular killing activity at 10 ug/mL after 20 mins by NBT dye reduction assay relative to control. The class given is functional. Set-up: scale not given: the % may be the effect or the level left.
Conditions: not given
Turning to `CCOC(=O)C(CO)NCP1(=O)OCC(OCn2cnc3c(=O)[nH]c(N)nc32)CO1` (centres undefined), the Activity was 39.8%.
On the same count and under the same terms, the result for `Nc1nc2c(ncn2COC(CO)CO)c(=O)[nH]1` [GANCICLOVIR] reads 39.43%; that for `NCCSCP1(=O)OCC(OCn2cnc3c(=O)[nH]c(N)nc32)CO1` (centres undefined), 33.77%.
In the case of `Nc1nc2c(ncn2COC2COP(=O)(CNCCO)OC2)c(=O)[nH]1` (centres undefined), the Activity is 33.38%.
Still for that read-out and setting: the result for `CCOC(=O)C(N)CSCP1(=O)OCC(OCn2cnc3c(=O)[nH]c(N)nc32)CO1` (centres undefined) reads 45.03%; that for `COC(=O)C(NCP1(=O)OCC(OCn2cnc3c(=O)[nH]c(N)nc32)CO1)C(C)C` (centres undefined), 41.18%.
The same measure, in the same setting: the result for `CCC(CO)NCP1(=O)OCC(OCn2cnc3c(=O)[nH]c(N)nc32)CO1` (centres undefined) reads 31.37%.

The subject of a further data set is Neutrophil. The data set is described as follows: Immunomodulatory activity in human neutrophils assessed as increase in intracellular killing activity at 40 ug/mL after 20 mins by NBT dye reduction assay relative to control. On the set-up: scale not given: the % may be the effect or the level left. In kind it is functional.
Conditions: not given
On to `CCOC(=O)C(CO)NCP1(=O)OCC(OCn2cnc3c(=O)[nH]c(N)nc32)CO1` (centres undefined), for which the Activity is listed as 48.11%.
Consider `Nc1nc2c(ncn2COC(CO)CO)c(=O)[nH]1` [GANCICLOVIR], for which the Activity is reported as 55.89%.
For `NCCSCP1(=O)OCC(OCn2cnc3c(=O)[nH]c(N)nc32)CO1` (centres undefined), the Activity came to 49.32%.
On the same count and under the same terms, the result for `Nc1nc2c(ncn2COC2COP(=O)(CNCCO)OC2)c(=O)[nH]1` (centres undefined) reads 48.54%; that for `CCOC(=O)C(N)CSCP1(=O)OCC(OCn2cnc3c(=O)[nH]c(N)nc32)CO1` (centres undefined), 58.04%; that for `COC(=O)C(NCP1(=O)OCC(OCn2cnc3c(=O)[nH]c(N)nc32)CO1)C(C)C` (centres undefined), 60.83%.
On the same count and under the same terms, the result for `CCC(CO)NCP1(=O)OCC(OCn2cnc3c(=O)[nH]c(N)nc32)CO1` (centres undefined) reads 46.76%.

For another data set, the system named is Rattus norvegicus. The data set is described as follows: Immunomodulatory activity in high fat diet-induced obese Wistar albino rat impaired immune model assessed as IL-6 level at 8 mg/kg, po after 8 weeks by ELISA relative to vehicle-treated control. In kind it is functional.
Conditions: not given
(In general: ELISA stands for enzyme-linked immunosorbent assay.)
Regarding `NCCSCP1(=O)OCC(OCn2cnc3c(=O)[nH]c(N)nc32)CO1` (centres undefined), the result was inactive.
As to `Nc1nc2c(ncn2COC2COP(=O)(CNCCO)OC2)c(=O)[nH]1` (centres undefined), the outcome was inactive.
Same read-out and setting: the result for `CCOC(=O)C(N)CSCP1(=O)OCC(OCn2cnc3c(=O)[nH]c(N)nc32)CO1` (centres undefined) reads 5.2 pg/mL; that for `COC(=O)C(NCP1(=O)OCC(OCn2cnc3c(=O)[nH]c(N)nc32)CO1)C(C)C` (centres undefined), 5.4 pg/mL; that for `CCC(CO)NCP1(=O)OCC(OCn2cnc3c(=O)[nH]c(N)nc32)CO1` (centres undefined), “inactive”.

System in a further data set: not listed separately
The data set is described as follows: Toxicity in Wistar albino rat. The class given is organism-based. The following applies: in vivo.
As to `CCOC(=O)C(CO)NCP1(=O)OCC(OCn2cnc3c(=O)[nH]c(N)nc32)CO1` (centres undefined), the LD50 was 80 mg/kg.
On the same count and under the same terms, the result for `Nc1nc2c(ncn2COC(CO)CO)c(=O)[nH]1` [GANCICLOVIR] reads 80 mg/kg.
The same measure, in the same setting: the result for `NCCSCP1(=O)OCC(OCn2cnc3c(=O)[nH]c(N)nc32)CO1` (centres undefined) reads 80 mg/kg; that for `Nc1nc2c(ncn2COC2COP(=O)(CNCCO)OC2)c(=O)[nH]1` (centres undefined), 80 mg/kg; that for `CCOC(=O)C(N)CSCP1(=O)OCC(OCn2cnc3c(=O)[nH]c(N)nc32)CO1` (centres undefined), 80 mg/kg.
Still for that read-out and setting: the result for `COC(=O)C(NCP1(=O)OCC(OCn2cnc3c(=O)[nH]c(N)nc32)CO1)C(C)C` (centres undefined) reads 80 mg/kg.
`CCC(CO)NCP1(=O)OCC(OCn2cnc3c(=O)[nH]c(N)nc32)CO1` (centres undefined) yielded an LD50 of 80 mg/kg.

The next data set concerns Neutrophil. The data set is described as follows: Immunomodulatory activity in human neutrophils assessed as increase in intracellular killing activity at 100 ug/mL after 20 mins by NBT dye reduction assay relative to control. In kind it is functional. On the set-up: scale not given: the % may be the effect or the level left.
Conditions: not given
Consider `CCOC(=O)C(CO)NCP1(=O)OCC(OCn2cnc3c(=O)[nH]c(N)nc32)CO1` (centres undefined), for which the Activity worked out at 53.09%.
Same read-out and setting: the result for `Nc1nc2c(ncn2COC(CO)CO)c(=O)[nH]1` [GANCICLOVIR] reads 58.23%.
Still for that read-out and setting: the result for `NCCSCP1(=O)OCC(OCn2cnc3c(=O)[nH]c(N)nc32)CO1` (centres undefined) reads 50.36%; that for `Nc1nc2c(ncn2COC2COP(=O)(CNCCO)OC2)c(=O)[nH]1` (centres undefined), 50.57%; that for `CCOC(=O)C(N)CSCP1(=O)OCC(OCn2cnc3c(=O)[nH]c(N)nc32)CO1` (centres undefined), 60.16%.
Regarding `COC(=O)C(NCP1(=O)OCC(OCn2cnc3c(=O)[nH]c(N)nc32)CO1)C(C)C` (centres undefined), the Activity is recorded as 62.45%.
Same read-out and setting: the result for `CCC(CO)NCP1(=O)OCC(OCn2cnc3c(=O)[nH]c(N)nc32)CO1` (centres undefined) reads 53.98%.

Another data set deals with Rattus norvegicus. Nature of the data set: Immunomodulatory activity in high fat diet-induced obese Wistar albino rat impaired immune model assessed as decrease in total neutrophils count at 8 mg/kg, po after 8 weeks by hematology analyser relative to control. On the set-up: dose 8 mg/kg.
Conditions: not given
In kind it is functional, organism-based.
As for `CCOC(=O)C(N)CSCP1(=O)OCC(OCn2cnc3c(=O)[nH]c(N)nc32)CO1` (centres undefined), the result was Active.
On the same count and under the same terms, the result for `COC(=O)C(NCP1(=O)OCC(OCn2cnc3c(=O)[nH]c(N)nc32)CO1)C(C)C` (centres undefined) reads “Active”.

The subject of a further data set is Rattus norvegicus. Nature of the data set: Immunomodulatory activity in high fat diet-induced obese Wistar albino rat impaired immune model assessed as decrease in total monocytes count at 8 mg/kg, po after 8 weeks by hematology analyser relative to control. The class given is functional, organism-based. Set-up: dose 8 mg/kg.
Conditions: not given
For the compound `CCOC(=O)C(N)CSCP1(=O)OCC(OCn2cnc3c(=O)[nH]c(N)nc32)CO1` (centres undefined), the result was Active.
On the same count and under the same terms, the result for `COC(=O)C(NCP1(=O)OCC(OCn2cnc3c(=O)[nH]c(N)nc32)CO1)C(C)C` (centres undefined) reads “Active”.

The next data set relates to Neutrophil. The data set is described as follows: Immunomodulatory activity in human neutrophils assessed as increase in intracellular killing activity at 1000 ug/mL after 20 mins by NBT dye reduction assay relative to control. The class given is functional. Set-up: scale not given: the % may be the effect or the level left.
Conditions: not given
Turning to `CCOC(=O)C(CO)NCP1(=O)OCC(OCn2cnc3c(=O)[nH]c(N)nc32)CO1` (centres undefined), the Activity came to 56.02%.
On the same count and under the same terms, the result for `Nc1nc2c(ncn2COC(CO)CO)c(=O)[nH]1` [GANCICLOVIR] reads 60.11%.
The same measure, in the same setting: the result for `NCCSCP1(=O)OCC(OCn2cnc3c(=O)[nH]c(N)nc32)CO1` (centres undefined) reads 57.91%.
The same measure, in the same setting: the result for `Nc1nc2c(ncn2COC2COP(=O)(CNCCO)OC2)c(=O)[nH]1` (centres undefined) reads 55.25%; that for `CCOC(=O)C(N)CSCP1(=O)OCC(OCn2cnc3c(=O)[nH]c(N)nc32)CO1` (centres undefined), 66.82%.
As for `COC(=O)C(NCP1(=O)OCC(OCn2cnc3c(=O)[nH]c(N)nc32)CO1)C(C)C` (centres undefined), the Activity is recorded as 65.14%.
Same read-out and setting: the result for `CCC(CO)NCP1(=O)OCC(OCn2cnc3c(=O)[nH]c(N)nc32)CO1` (centres undefined) reads 54.32%.

A further data set has as its system Rattus norvegicus. Nature of the data set: Immunomodulatory activity in high fat diet-induced obese Wistar albino rat impaired immune model assessed as CRP level at 8 mg/kg, po after 8 weeks by ELISA relative to high fat-diet fed rat with immune dysfunction. In kind it is functional.
Conditions: not given
`CCOC(=O)C(CO)NCP1(=O)OCC(OCn2cnc3c(=O)[nH]c(N)nc32)CO1` (centres undefined): the outcome was inactive.
With `NCCSCP1(=O)OCC(OCn2cnc3c(=O)[nH]c(N)nc32)CO1` (centres undefined), the result was inactive.
The same measure, in the same setting: the result for `Nc1nc2c(ncn2COC2COP(=O)(CNCCO)OC2)c(=O)[nH]1` (centres undefined) reads “inactive”; that for `CCOC(=O)C(N)CSCP1(=O)OCC(OCn2cnc3c(=O)[nH]c(N)nc32)CO1` (centres undefined), 21.9 ng/mL.
Still for that read-out and setting: the result for `COC(=O)C(NCP1(=O)OCC(OCn2cnc3c(=O)[nH]c(N)nc32)CO1)C(C)C` (centres undefined) reads 22.3 ng/mL; that for `CCC(CO)NCP1(=O)OCC(OCn2cnc3c(=O)[nH]c(N)nc32)CO1` (centres undefined), “inactive”.

Another data set relates to Rattus norvegicus. The data set is described as follows: Immunomodulatory activity in high fat diet-induced obese Wistar albino rat impaired immune model assessed as TNF-alpha level at 8 mg/kg, po after 8 weeks by ELISA relative to vehicle-treated control. The class given is functional.
Conditions: not given
With `NCCSCP1(=O)OCC(OCn2cnc3c(=O)[nH]c(N)nc32)CO1` (centres undefined), the result was inactive.
Same read-out and setting: the result for `Nc1nc2c(ncn2COC2COP(=O)(CNCCO)OC2)c(=O)[nH]1` (centres undefined) reads “inactive”; that for `CCOC(=O)C(N)CSCP1(=O)OCC(OCn2cnc3c(=O)[nH]c(N)nc32)CO1` (centres undefined), 36.5 pg/mL.
As for `COC(=O)C(NCP1(=O)OCC(OCn2cnc3c(=O)[nH]c(N)nc32)CO1)C(C)C` (centres undefined), the Activity stood at 37.1 pg/mL.
On to `CCC(CO)NCP1(=O)OCC(OCn2cnc3c(=O)[nH]c(N)nc32)CO1` (centres undefined), for which the outcome was inactive.
